SMILES strings stand for the structures. In brackets after ≈: the same amount, converted by molar mass.

Among the data in DBAASP are MIC values, retold here.

Test systems include Bacillus subtilis DELTA; Candida parapsilosis; Aureobasidium pullulans; Micrococcus luteus; Bacillus megaterium; Escherichia coli TOP 10; Candida krusei ATCC 6258; Escherichia coli; Salmonella sp.; Yersinia enterocolitica; Staphylococcus aureus.
Holding throughout (assay): ≥ marks a high value that may be exact or a test limit, other limits are often not marked, values filed in µg/mL are converted to µM
The subject of assay [1] is Klebsiella aerogenes ATCC 13048.
Assay [2] concerns Saccharomyces cerevisiae ATCC 204508.
Assay [3] concerns Staphylococcus aureus ATCC 29213.
Assay [4] concerns Micrococcus luteus ATCC 14452.
In assay [5] the test system is Listeria monocytogenes ATCC 7611.
In assay [6] the test system is Lacticaseibacillus casei ATCC 334.
In assay [7] the test system is Klebsiella pneumoniae ATCC 700603.
The subject of assay [8] is Escherichia coli CCT 1371.
The test system of assay [9] is Pseudomonas aeruginosa ATCC 27853.
Assay [10] deals with Staphylococcus aureus ATCC 6535.
Assay [11] has as its system Staphylococcus saprophyticus.
Assay [12] has as its system Zymomonas mobilis ATCC 10988.
The subject of assay [13] is Pseudomonas aeruginosa PAO1.
Assay [14] relates to Escherichia coli DH5alpha.
The test system of assay [15] is Staphylococcus aureus ATCC 9144.
In assay [16] the test system is Corynebacterium glutamicum ATCC 13032.
Assay [17] relates to Candida albicans ATCC 10231.
Assay [18] has as its system Bacillus subtilis ATCC 23857.
The test system of assay [19] is Escherichia coli ATCC 25922.
Assay [20] relates to Candida parapsilosis ATCC 22019.
For assay [21], the system named is Candida glabrata ATCC 2001.
The subject of assay [22] is Candida albicans ATCC 14053.
Assay [23] concerns Staphylococcus aureus ATCC BAA-1683.
Assay [24] deals with Salmonella enterica subsp. enterica serovar Enteritidis.
For assay [25], the system named is Staphylococcus aureus ATCC 43300.
For assay [26], the system named is Pseudomonas aeruginosa ATCC 9027.
Assay [27] deals with Candida albicans FRR 5580.
Assay [28] concerns Bifidobacterium longum subsp. infantis.

In general, MIC refers to the least concentration at which growth counts as inhibited. A higher MIC goes with weaker potency. Turning to `CC[C@H](C)[C@H](NC(=O)[C@H](CC(C)C)NC(=O)[C@H](C)NC(=O)[C@H](Cc1ccccc1)NC(=O)[C@H](C)N)C(=O)N[C@@H](C)C(=O)NCC(=O)N[C@@H](C)C(=O)N[C@@H](CC(C)C)C(=O)N[C@@H](Cc1ccc(O)cc1)C(=O)N[C@@H](CCCN=C(N)N)C(=O)N[C@H](C(=O)N[C@@H](Cc1ccccc1)C(=O)N[C@@H](Cc1cnc[nH]1)C(=O)N[C@@H](CCCN=C(N)N)C(=O)N[C@@H](CCCN=C(N)N)C(=O)O)[C@@H](C)CC` [AFALIAGALYRIFHRR], the MIC is no less than 256 µM in assay [1]; no less than 32 µM in assay [2]; 3.5 µM (≈ 6.56 µg/mL) in assay [3]; 7.5 µM (≈ 14.1 µg/mL) in assay [4]; 8 µM (≈ 15 µg/mL) in assay [5]; no less than 256 µM in assay [6]. The same molecule displayed an MIC in assay [7] greater than 256 µM.
Take `CC[C@H](C)[C@H](NC(=O)[C@H](CO)NC(=O)[C@@H](NC(=O)[C@H](CCCCN)NC(=O)[C@H](Cc1ccccc1)NC(=O)[C@@H]1CCCN1C(=O)[C@@H](N)CCC(=O)O)[C@@H](C)CC)C(=O)N[C@@H](Cc1cnc[nH]1)C(=O)N[C@@H](CC(C)C)C(N)=O` [EPFKISIHL]: the MIC in [8] worked out at 13.8 µM (≈ 15 µg/mL); in [9] it was 27.7 µM (≈ 30 µg/mL); in assay [10] it was 27.7 µM (≈ 30 µg/mL); in assay [11], 27.7 µM (≈ 30 µg/mL).
Turning to `CC[C@H](C)[C@H](NC(=O)[C@H](CC(C)C)NC(=O)[C@H](CCC(N)=O)NC(=O)[C@@H](NC(=O)[C@@H](NC(=O)[C@H](CCCN=C(N)N)NC(=O)[C@H](CCCCN)NC(=O)[C@H](Cc1ccccc1)NC(C)=O)[C@@H](C)CC)C(C)C)C(=O)N[C@@H](CCCCN)C(=O)N[C@@H](CC(=O)O)C(=O)N[C@@H](Cc1ccccc1)C(=O)N[C@@H](CC(C)C)C(=O)N[C@@H](CCCN=C(N)N)C(N)=O` [FKRIVQLIKDFLR], the MIC against Bacillus subtilis DELTA is 11.9 µM (≈ 20.5 µg/mL); in assay [12] it was no less than 59.7 µM; in the assay on Candida parapsilosis, no less than 59.7 µM; in assay [13], 59.7 µM (≈ 102 µg/mL); in assay [14] it was no less than 59.7 µM.
In the case of `C[C@H](NC(=O)[C@H](CCCCN)NC(=O)[C@H](Cc1c[nH]c2ccccc12)NC(=O)[C@H](Cc1c[nH]c2ccccc12)NC(=O)CNC(=O)[C@@H]1CCCN1C(=O)[C@H](CCCCN)NC(=O)[C@H](CCCCN)NC(=O)CN)C(=O)N[C@@H](CCCCN)C(N)=O` [GKKPGWWKAK], the MIC was greater than 211 µM in assay [9]; no less than 211 µM in [15]; 3.29 µM (≈ 3.9 µg/mL) in [16]; no less than 52.7 µM in the assay on Aureobasidium pullulans; 52.7 µM (≈ 62.4 µg/mL) in assay [17]; no less than 105 µM against Micrococcus luteus. Further, the MIC in assay [18] is no less than 105 µM; with Bacillus megaterium it was 3.29 µM (≈ 3.9 µg/mL); in assay [19] it was greater than 211 µM.
In the assay with Escherichia coli TOP 10, `CC[C@H](C)[C@H](NC(=O)[C@H](CCCCN)NC(=O)[C@H](CO)NC(=O)[C@H](Cc1ccccc1)NC(=O)[C@H](CC(C)C)NC(=O)[C@H](CCCCN)NC(=O)[C@H](CCCCN)NC(=O)[C@H](CC(C)C)NC(=O)CN)C(=O)N[C@@H](CCCCN)C(=O)N[C@H](C(=O)N[C@H](C(=O)NCC(=O)N[C@@H](CO)C(=O)N[C@@H](C)C(=O)N[C@@H](CC(C)C)C(=O)N[C@@H](CCCCN)C(=O)N[C@@H](CC(N)=O)C(=O)N[C@@H](CC(C)C)C(=O)N[C@@H](C)C(N)=O)[C@@H](C)CC)[C@@H](C)CC` [GLKKLFSKIKIIGSALKNLA] had an MIC of 1.45 µM (≈ 3.1 µg/mL).
Consider `CC[C@H](C)[C@H](N)C(=O)N[C@@H](CC(=O)O)C(=O)N[C@@H](Cc1c[nH]c2ccccc12)C(=O)N[C@@H](Cc1cnc[nH]1)C(=O)N[C@@H](Cc1cnc[nH]1)C(=O)N[C@@H](CC(C)C)C(=O)N[C@@H](CC(C)C)C(=O)N[C@@H](CC(=O)O)C(=O)N[C@@H](C)C(=O)N[C@@H](C)C(=O)N[C@@H](Cc1cnc[nH]1)C(=O)N[C@@H](CCC(N)=O)C(=O)N[C@H](C(=O)N[C@@H](CC(C)C)C(N)=O)[C@@H](C)CC` [IDWHHLLDAAHQIL], for which the MIC in assay [20] was no less than 64 µM; in [21], 16 µM (≈ 26.9 µg/mL); in [22], no less than 64 µM; against Candida krusei ATCC 6258, no less than 32 µM.
On to `CC(C)C[C@H](NC(=O)[C@H](CC(C)C)NC(=O)[C@H](CC(C)C)NC(=O)[C@H](CC(C)C)NC(=O)[C@H](CCCCN)NC(=O)[C@H](CCCCN)NC(=O)[C@H](CCCCN)NC(=O)[C@@H](N)CCCCN)C(=O)N[C@@H](CCCN=C(N)N)C(=O)N[C@@H](CCCN=C(N)N)C(N)=O` [KKKKLLLLRR], for which the MIC is 386 µM (≈ 500 µg/mL) with Escherichia coli and no less than 386 µM in [23].
`CC[C@H](C)[C@H](NC(=O)[C@H](CCCN=C(N)N)NC(=O)[C@H](CCCN=C(N)N)NC(=O)[C@@H](NC(=O)[C@@H](NC(=O)[C@H](CCC(N)=O)NC(=O)[C@@H](N)CCCN=C(N)N)[C@@H](C)CC)[C@@H](C)CC)C(=O)N[C@@H](CCC(N)=O)C(=O)N[C@@H](CCCN=C(N)N)C(N)=O` [RQIIRRIQR]: the MIC was no less than 40.4 µM in assay [24]; greater than 40.4 µM against Escherichia coli; greater than 40.4 µM in [3]; greater than 40.4 µM in [25]; greater than 40.4 µM in assay [19]; no less than 40.4 µM in the assay on Salmonella sp.. Besides, in the assay on Yersinia enterocolitica, the MIC is no less than 40.4 µM.
As for `NCCCC[C@H](NC(=O)[C@H](Cc1c[nH]c2ccccc12)NC(=O)[C@H](Cc1c[nH]c2ccccc12)NC(=O)[C@H](CCCCN)NC(=O)[C@H](Cc1c[nH]c2ccccc12)NC(=O)[C@H](Cc1c[nH]c2ccccc12)NC(=O)[C@@H](N)CCCN=C(N)N)C(N)=O` [RWWKWWK], the figures for the MIC in assay [26] and in assay [27] were 27.2 µM (≈ 32 µg/mL) and no less than 54.5 µM, respectively.
As for `CC[C@H](C)[C@H](NC(=O)[C@H](CCC(N)=O)NC(=O)[C@H](C)NC(=O)[C@H](Cc1cnc[nH]1)NC(=O)[C@@H]1CCCN1C(=O)[C@H](CCCN=C(N)N)NC(=O)[C@@H](NC(=O)[C@@H](NC(=O)[C@H](C)NC(=O)[C@@H]1CCCN1C(=O)[C@H](CC(N)=O)NC(=O)[C@H](C)NC(=O)[C@@H](N)Cc1ccc(O)cc1)C(C)C)C(C)C)C(=O)N1CCC[C@H]1C(=O)N[C@@H](CCC(N)=O)C(=O)N[C@@H](CCCN=C(N)N)C(=O)O` [YANPAVVRPHAQIPQR], the MIC in the assay with Staphylococcus aureus is greater than 1650 µM; against Escherichia coli, greater than 1650 µM; in [28], no less than 1650 µM.
